Reference: publication PMC11601558, “SLC6A19 inhibition facilitates urinary neutral amino acid excretion and lowers plasma phenylalanine” (JCI Insight, 2024)
Where “and” joins values, the source holds several entries; their conditions need not be identical. Equal entries are not always repeated. Where two headings read alike, the source gives them in different places. Blank lines part the entries; values can stand above or below the molecule they belong to.

Target: T1, mouse SLC6A19 (Mus musculus, UniProt Q9D687)
T1 construct: expressed in transfected cells
T1 sequence (Q9D687 1-634): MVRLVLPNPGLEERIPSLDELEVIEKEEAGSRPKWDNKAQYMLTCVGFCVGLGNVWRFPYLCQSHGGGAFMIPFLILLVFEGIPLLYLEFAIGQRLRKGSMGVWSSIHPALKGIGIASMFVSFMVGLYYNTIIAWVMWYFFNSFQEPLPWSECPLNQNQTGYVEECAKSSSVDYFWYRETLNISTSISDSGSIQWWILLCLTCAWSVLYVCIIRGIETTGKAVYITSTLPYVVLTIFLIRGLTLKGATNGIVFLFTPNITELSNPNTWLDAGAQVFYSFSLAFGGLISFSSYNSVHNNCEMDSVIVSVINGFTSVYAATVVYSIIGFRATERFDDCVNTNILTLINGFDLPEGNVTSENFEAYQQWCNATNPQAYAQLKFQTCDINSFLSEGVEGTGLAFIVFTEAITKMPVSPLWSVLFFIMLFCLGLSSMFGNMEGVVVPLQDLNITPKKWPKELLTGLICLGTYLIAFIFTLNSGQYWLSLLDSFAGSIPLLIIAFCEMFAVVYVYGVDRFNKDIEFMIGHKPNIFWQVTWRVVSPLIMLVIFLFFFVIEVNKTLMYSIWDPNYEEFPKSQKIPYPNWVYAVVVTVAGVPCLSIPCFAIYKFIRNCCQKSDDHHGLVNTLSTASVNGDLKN
T1 sequence (Q9ESG4 15-222 partner): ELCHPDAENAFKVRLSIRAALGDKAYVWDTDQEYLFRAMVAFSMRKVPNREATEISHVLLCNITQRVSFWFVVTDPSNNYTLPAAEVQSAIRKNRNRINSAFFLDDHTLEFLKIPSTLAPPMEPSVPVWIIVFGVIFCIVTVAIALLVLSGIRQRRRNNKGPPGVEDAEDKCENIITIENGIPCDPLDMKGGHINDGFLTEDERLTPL
Assay: Isoleucine transport assay, Flp-In T-REx 293 cells coexpressing mouse SLC6A19 and TMEM27
Assay type: cell-based
Conditions: for isoleucine transport, Mouse (Fig 1f curve point) / isoleucine transport, Mouse (Fig 1c curve point): technical replicates; for IC50: read-out: IC50 against mouse SLC6A19, isoleucine transport assay
Procedure: Flp-In T-REx 293 cells (Thermo Fisher Scientific) were engineered to coexpress C-terminally V5-tagged human or mouse SLC6A19 under the control of a tetracycline-inducible promoter and human or mouse myc-DDK-tagged TMEM27 under the control of a constitutively active promoter. Cells were maintained in DMEM/F12 medium supplemented with 10% FBS, 100 units/mL penicillin, 100 μg/mL streptomycin, 200 μg/mL hygromycin, 10 μg/mL blasticidin, and 300 μg/mL geneticin (all from Thermo Fisher Scientific) at 37°C and 5% CO2.
Flp-In T-REx 293 cells stably coexpressing human or mouse SLC6A19 and TMEM27 were plated in 384-well plates in the presence of 1 μg/mL tetracyclin (Sigma-Aldrich) to induce the expression of SLC6A19. After 24 hours, cells were washed with live cell imaging solution (LCIS, Thermo Fisher Scientific) before JN-170 or JNT-517 were added to cells in 10-point concentration response curves in 0.5% DMSO in Krebs buffer (140 mM NaCl, 4.7 mM KCl, 2.5 mM CaCl2, 1.2 mM MgCl2, 11 mM HEPES, 10 mM glucose, pH 7.4). Cells were incubated with compounds for 1 hour at room temperature before 1 mM ^13C6,^15N1-labeled L-isoleucine (Cambridge Isotope Laboratories) was added as a transport substrate. After 20 minutes incubation at room temperature, cells were washed and lysed in H2O with 15 μM internal standard D-Leucine-D10 (CDN Isotopes) for 1–2 hours. A standard curve of ^13C6,^15N1-L-isoleucine was added to each plate following cell lysis. Plates were centrifuged at 3,700g to remove cell debris, and supernatant was diluted in 2 steps to a final 1:10 dilution in acetonitrile/0.1% formic acid. Sample desalting was performed on a high throughput RapidFire-365 (Agilent) using a hydrophilic interaction liquid chromatography (HILIC) column. A quantitative time-of-flight (Q-ToF) mass spectrometer (Agilent) was used to detect analytes. Agilent MassHunter quantitative analysis for time of flight was used as the integration software for measuring area under the peak for both ^13C6,^15N1-L-isoleucine and D-Leucine-D10 internal standard.
IC50 values for transport inhibition in cells overexpressing SLC6A19 and TMEM27 were calculated using a 4-parameter logistic regression in Collaborative Drug Discovery (CDD). Reported IC50 values are geometric means of 4–6 independent experiments. For postmortem intestinal transport assays, single outliers of quadruplicate replicates were excluded from the calculation if a signal value’s distance to the mean exceeded 35% of the signal average. The IC50 values of individual experiments were calculated with a 3- or 4-parameter logistic regression using GraphPad Prism 9. The reported IC50 value represents the geometric mean of n = 5 experiments from 3 individual donors. Statistical comparison of urinary Phe excretion in Pah^enu2 mice treated with vehicle or JN-170 was conducted using 1-way analysis of variance (ANOVA) with Tukey’s post hoc comparison. Statistical analysis of baseline-adjusted plasma Phe in mice treated with vehicle or JN-170 was determined by 2-way ANOVA with Dunnett’s post hoc comparison. All statistical analyses were performed using GraphPad Prism 9. For clinical studies, group sizes were not determined based on statistical power calculations. Statistical significance of pharmacodynamic results was not assessed. Values are reported as mean (urinary Phe excretion, T1/2, Cl/F), geometric mean (Cmax/D, AUC0-inf/D), or median (Tmax).

isoleucine transport, Mouse (Fig 1f curve point) (0.000722 uM): 84.1 and 94.9 | isoleucine transport, Mouse (Fig 1f curve point) (0.00219 uM): 91.4 and 88.7 | isoleucine transport, Mouse (Fig 1f curve point) (0.00438 uM): 84.6 and 91.9 | isoleucine transport, Mouse (Fig 1f curve point) (0.015313 uM): 82.4 and 86.6 | isoleucine transport, Mouse (Fig 1f curve point) (0.048125 uM): 65.9 and 67.7 | isoleucine transport, Mouse (Fig 1f curve point) (0.144375 uM): 32.3 and 28.6 | isoleucine transport, Mouse (Fig 1f curve point) (0.4375 uM): 14.6 and 12.2 | isoleucine transport, Mouse (Fig 1f curve point) (1.3125 uM): -0.346 and -1.17 | isoleucine transport, Mouse (Fig 1f curve point) (3.9375 uM): -4.28 and -6.91 | isoleucine transport, Mouse (Fig 1f curve point) (11.8125 uM): -7.48 and -5.64 | IC50 (geometric mean n = 6): 97 nM
Structure (SMILES): N#Cc1ccc(-c2noc([C@]3(C(F)(F)F)CCN(C(=O)NCCC4(N)CC4)C3)n2)cc1 [JN-170]

Structure (SMILES): NC(=O)N1CCC[C@@H](N(C(=O)NCc2ccc(OC(F)(F)F)cc2F)C2CC2)C1 [JNT-517]
isoleucine transport, Mouse (Fig 1c curve point) (0.000722 uM): 87.6 and 103 | isoleucine transport, Mouse (Fig 1c curve point) (0.00219 uM): 108 and 105 | isoleucine transport, Mouse (Fig 1c curve point) (0.00438 uM): 100 and 89.5 | isoleucine transport, Mouse (Fig 1c curve point) (0.0153125 uM): 85.6 and 104 | isoleucine transport, Mouse (Fig 1c curve point) (0.048125 uM): 88.3 and 96.6 | isoleucine transport, Mouse (Fig 1c curve point) (0.144375 uM): 78.2 and 95.8 | isoleucine transport, Mouse (Fig 1c curve point) (0.4375 uM): 86.6 and 108 | isoleucine transport, Mouse (Fig 1c curve point) (1.3125 uM): 93.2 and 97.6 | isoleucine transport, Mouse (Fig 1c curve point) (3.9375 uM): 89 and 86.1 | isoleucine transport, Mouse (Fig 1c curve point) (11.8125 uM): 86 and 88.2 | IC50: > 11800 nM
